Data reported in patent publication US20260258035A1, “FIVE-MEMBERED AND SIX-MEMBERED NITROGEN-CONTAINING COMPOUND, AND INTERMEDIATE, PREPARATION METHOD AND USE THEREOF” (HANGZHOU SYNRX THERAPEUTICS BIOMEDICAL TECHNOLOGY CO., LTD., priority 2022, published 2026).
Read-outs that look alike come from different tables or passages of the source.

Legend:
[1] = target: PARG (Homo sapiens, UniProt Q86W56); experiment: Biochemical assay (PARG, TFMU-ADPr substrate)
[2] = system: HCC1806; experiment: Cell viability assay (CellTiter-Glo); assay type: cell-based, Human; conditions: HCC1806, 7 days, CellTiter-Glo, read-out: IC50 (nM) in cell viability assay
[3] = 4 nM PARG, 66.2 uM TFMU-ADPr, 3 min at room temperature

PARG, sequence (Q86W56 whole entry): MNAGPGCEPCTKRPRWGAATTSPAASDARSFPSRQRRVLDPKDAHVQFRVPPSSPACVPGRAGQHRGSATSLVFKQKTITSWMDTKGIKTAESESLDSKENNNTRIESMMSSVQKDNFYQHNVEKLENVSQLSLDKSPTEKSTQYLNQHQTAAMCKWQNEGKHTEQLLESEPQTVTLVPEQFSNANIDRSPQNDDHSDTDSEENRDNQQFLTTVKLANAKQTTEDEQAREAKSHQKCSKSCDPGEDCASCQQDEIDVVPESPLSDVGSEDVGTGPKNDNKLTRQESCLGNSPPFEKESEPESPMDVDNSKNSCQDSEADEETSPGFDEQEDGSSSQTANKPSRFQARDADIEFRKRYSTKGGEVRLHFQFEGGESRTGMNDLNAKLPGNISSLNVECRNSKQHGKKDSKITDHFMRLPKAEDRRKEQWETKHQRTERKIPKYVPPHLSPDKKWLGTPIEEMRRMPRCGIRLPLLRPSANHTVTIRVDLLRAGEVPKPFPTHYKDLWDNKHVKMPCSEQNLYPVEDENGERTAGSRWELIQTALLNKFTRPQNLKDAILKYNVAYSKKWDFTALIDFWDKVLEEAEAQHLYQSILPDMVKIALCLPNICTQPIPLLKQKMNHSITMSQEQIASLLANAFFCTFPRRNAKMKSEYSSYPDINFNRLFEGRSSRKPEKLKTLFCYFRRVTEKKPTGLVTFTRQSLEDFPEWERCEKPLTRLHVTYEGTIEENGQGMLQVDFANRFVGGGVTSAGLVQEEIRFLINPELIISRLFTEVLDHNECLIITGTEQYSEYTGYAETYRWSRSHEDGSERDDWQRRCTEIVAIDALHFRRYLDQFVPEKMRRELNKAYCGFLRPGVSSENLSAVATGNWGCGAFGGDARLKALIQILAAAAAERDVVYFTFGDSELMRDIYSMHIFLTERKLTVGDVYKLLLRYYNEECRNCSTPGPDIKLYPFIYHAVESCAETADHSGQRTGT

Structure (SMILES) | IC50 ([1]; PARG, TFMU-ADPr substrate) | IC50 ([2]; Homo sapiens, HCC1806, 168 h) | IC50 [1, 3] | IC50 [2]
Cc1nc(-c2nnc(C(F)F)s2)n2cc(S(=O)(=O)NC3(C#N)CC3)cc(N3CCN(C(=O)C(C)C)CC3)c12 [Example 170, N-(1-cyanocyclopropyl)-3-(5-(difluoromethyl)-1,3,4-thiadiazol-2-yl)-8-(4-isobutyrylpiperazin-1-yl)-1-methylimidazo[1,5-a]pyridine-6-sulfonamide] | 1.66 nM | 122 nM | – | –
COC1(C(=O)N2CCN(c3cc(S(=O)(=O)NC4CC4)cn4c(-c5nnc(C(F)(F)F)s5)ncc34)CC2)CC1 [Example 194, N-cyclopropyl-8-(4-(1-methoxycyclopropane-1-carbonyl)piperazin-1-yl)-3-(5-(trifluoromethyl)-1,3,4-thiadiazol-2-yl)imidazo[1,5-a]pyridine-6-sulfonamide] | 3.21 nM | 84.8 nM | – | –
COC1(C(=O)N2CCN(c3cc(S(=O)(=O)NC4(C)CC4)cn4c(-c5nnc(C(F)F)s5)ncc34)C[C@H]2C)CC1 [Example 197, (R)-3-(5-(difluoromethyl)-1,3,4-thiadiazol-2-yl)-8-(4-(1-methoxycyclopropane-1-carbonyl)-3-methylpiperazin-1-yl)-N-(1-methylcyclopropyl)imidazo[1,5-a]pyridine-6-sulfonamide] | 0.19 nM | 6.58 nM | – | –
CC(C)N1CC(C(=O)N2CCN(c3cc(S(=O)(=O)NC4(C#N)CC4)cn4c(-c5nnc(C(F)F)s5)ncc34)C[C@H]2C)C1 [Example 295, (R)-N-(1-cyanocyclopropyl)-3-(5-(difluoromethyl)-1,3,4-thiadiazol-2-yl)-8-(4-(1-isopropylazetidine-3-carbonyl)-3-methylpiperazin-1-yl)imidazo[1,5-a]pyridine-6-sulfonamide] | 39.8 nM | 2820 nM | – | –
N#CC1(NS(=O)(=O)c2cc(N3CCC(n4cncn4)CC3)c3cnc(-c4nnc(C(F)(F)F)s4)n3c2)CC1 [Example 213, 8-(4-(1H-1,2,4-triazol-1-yl)piperidin-1-yl)-N-(1-cyanocyclopropyl)-3-(5-(trifluoromethyl)-1,3,4-thiadiazol-2-yl)imidazo[1,5-a]pyridine-6-sulfonamide] | 31.6 nM | 1200 nM | – | –
COC1(C(=O)N2CCN(c3cc(S(=O)(=O)NC4(C)CC4)cn4c(-c5nnc(C(F)F)s5)ncc34)C[C@H]2CO)CC1 [Example 201, (S)-3-(5-(difluoromethyl)-1,3,4-thiadiazol-2-yl)-8-(3-(hydroxymethyl)-4-(1-methoxycyclopropane-1-carbonyl)piperazin-1-yl)-N-(1-methylcyclopropyl)imidazo[1,5-a]pyridine-6-sulfonamide] | 0.14 nM | 9.06 nM | – | –
COC1(C(=O)N2CCN(c3cc(S(=O)(=O)NC4(C)COC4)cn4c(-c5nnc(C(F)(F)F)s5)ncc34)CC2)CC1 [Example 177, 8-(4-(1-methoxycyclopropane-1-carbonyl)piperazin-1-yl)-N-(3-methyloxetan-3-yl)-3-(5-(trifluoromethyl)-1,3,4-thiadiazol-2-yl)imidazo[1,5-a]pyridine-6-sulfonamide] | 0.54 nM | 15 nM | – | –
CC(C)C(=O)N1CCN(c2nc(S(=O)(=O)NC3(C)CC3)cn3c(-c4nnc(C(F)F)s4)ncc23)CC1 [Example 162, 3-(5-(difluoromethyl)-1,3,4-thiadiazol-2-yl)-8-(4-isobutyrylpiperazin-1-yl)-N-(1-methylcyclopropyl)imidazo[1,5-a]pyrazine-6-sulfonamide] | 525 nM | 5000 to 30000 nM | 500 to 1000 nM | 6070 nM
CC1(C(=O)N2CCN(c3cc(S(=O)(=O)NC4(C#N)CC4)cn4c(-c5nnc(C(F)F)s5)ncc34)CC23CC3)CC1 [Example 91, N-(1-cyanocyclopropyl)-3-(5-(difluoromethyl)-1,3,4-thiadiazol-2-yl)-8-(4-(1-methylcyclopropane-1-carbonyl)-4,7-diazaspiro[2.5]octan-7-yl)imidazo[1,5-a]pyridine-6-sulfonamide] | 31.6 nM | < 500 nM | < 100 nM | 264 nM
CN1CC(C(=O)N2CCN(c3cc(S(=O)(=O)NC4(C)CC4)cn4c(-c5nnc(C(F)(F)F)s5)ncc34)CC2)C1 [Example 333, 8-(4-(1-methylazetidine-3-carbonyl)piperazin-1-yl)-N-(1-methylcyclopropyl)-3-(5-(trifluoromethyl)-1,3,4-thiadiazol-2-yl)imidazo[1,5-a]pyridine-6-sulfonamide] | 3.83 nM | 310 nM | – | –
CC1(C(=O)N2CC3CCC2CN3c2cc(S(=O)(=O)NC3(C#N)CC3)cn3c(-c4nnc(C(F)F)s4)ncc23)CC1 (stereo not shown) [Example 92, N-(1-cyanocyclopropyl)-3-(5-(difluoromethyl)-1,3,4-thiadiazol-2-yl)-8-(5-(1-methylcyclopropane-1-carbonyl)-2,5-diazabicyclo[2.2.2]octan-2-yl)imidazo[1,5-a]pyridine-6-sulfonamide] | 27.5 nM | 500 to 5000 nM | < 100 nM | 974 nM
CNC1(C(=O)N2CCN(c3cc(S(=O)(=O)NC4(C#N)CC4)cn4c(-c5nnc(C(F)(F)F)s5)ncc34)CC2)CC1 [Example 275, N-(1-cyanocyclopropyl)-8-(4-(1-(methylamino)cyclopropane-1-carbonyl)piperazin-1-yl)-3-(5-(trifluoromethyl)-1,3,4-thiadiazol-2-yl)imidazo[1,5-a]pyridine-6-sulfonamide] | 22.9 nM | 472 nM | – | –
CC(C)C(=O)N1CC2(C=C(c3nc(-c4nnc(C(F)(F)F)s4)n4cc(S(=O)(=O)NC5(C#N)CC5)ccc34)CC2)C1 [Example 389, N-(1-cyanocyclopropyl)-1-(2-isobutyryl-2-azaspiro[3.4]oct-5-en-6-yl)-3-(5-(trifluoromethyl)-1,3,4-thiadiazol-2-yl)imidazo[1,5-a]pyridine-6-sulfonamide] | 20 nM | 2130 nM | – | –
CN(C)CC(=O)N1CCN(c2cc(S(=O)(=O)NC3(C#N)CC3)cn3c(-c4nnc(C(F)(F)F)s4)ncc23)CC1 [Example 250, N-(1-cyanocyclopropyl)-8-(4-(dimethylglycyl)piperazin-1-yl)-3-(5-(trifluoromethyl)-1,3,4-thiadiazol-2-yl)imidazo[1,5-a]pyridine-6-sulfonamide] | 38 nM | 1280 nM | – | –
CC(C)C(=O)N1CCN(c2cc(S(=O)(=O)NC3(C)CC3)cn3c(-c4nnc(C(F)F)s4)nc(C#N)c23)C[C@H]1C [Example 165, (R)-1-cyano-3-(5-(difluoromethyl)-1,3,4-thiadiazol-2-yl)-8-(4-isobutyryl-3-methylpiperazin-1-yl)-N-(1-methylcyclopropyl)imidazo[1,5-a]pyridine-6-sulfonamide] | 20 nM | 1000 nM | – | –
Cc1nc(-c2nnc(C(F)F)s2)n2cc(S(=O)(=O)NC3(C)COC3)cc(N3CCC4(CC3)COC4)c12 [Example 169, 3-(5-(difluoromethyl)-1,3,4-thiadiazol-2-yl)-1-methyl-N-(3-methyloxetan-3-yl)-8-(2-oxa-7-azaspiro[3.5]nonan-7-yl)imidazo[1,5-a]pyridine-6-sulfonamide] | 1.82 nM | 27 nM | – | –
N#CC1(NS(=O)(=O)c2cc(N3CCNCC3)c3cnc(-c4nnc(C(F)(F)F)s4)n3c2)CC1 [Example 233, N-(1-cyanocyclopropyl)-8-(piperazin-1-yl)-3-(5-(trifluoromethyl)-1,3,4-thiadiazol-2-yl)imidazo[1,5-a]pyridine-6-sulfonamide] | 45.7 nM | 3000 nM | – | –
N#CC1(NS(=O)(=O)c2cc(N3CCN(C(=O)C(F)F)CC3)c3cnc(-c4nnc(C(F)(F)F)s4)n3c2)CC1 [Example 241, N-(1-cyanocyclopropyl)-8-(4-(2,2-difluoroacetyl)piperazin-1-yl)-3-(5-(trifluoromethyl)-1,3,4-thiadiazol-2-yl)imidazo[1,5-a]pyridine-6-sulfonamide] | 24 nM | 4180 nM | – | –
COC1(C(=O)N2CCN(c3cc(S(=O)(=O)NC4(C)CC4)cn4c(-c5nnc(C(F)(F)F)s5)ncc34)CC2)CCC1 [Example 327, 8-(4-(1-methoxycyclobutane-1-carbonyl)piperazin-1-yl)-N-(1-methylcyclopropyl)-3-(5-(trifluoromethyl)-1,3,4-thiadiazol-2-yl)imidazo[1,5-a]pyridine-6-sulfonamide] | 0.15 nM | 6.13 nM | – | –
CN1CC(F)(C(=O)N2CCN(c3cc(S(=O)(=O)NC4(C)CC4)cn4c(-c5nnc(C(F)(F)F)s5)ncc34)CC2)C1 [Example 322, 8-(4-(3-fluoro-1-methylazetidine-3-carbonyl)piperazin-1-yl)-N-(1-methylcyclopropyl)-3-(5-(trifluoromethyl)-1,3,4-thiadiazol-2-yl)imidazo[1,5-a]pyridine-6-sulfonamide] | 16.5 nM | 334 nM | – | –
N#CC1(NS(=O)(=O)c2cc(N3CCN(C(=O)C4(OCC(=O)O)CC4)CC3)c3cnc(-c4nnc(C(F)F)s4)n3c2)CC1 [Example 381, 2-(1-(4-(6-(N-(1-cyanocyclopropyl)sulfamoyl)-3-(5-(difluoromethyl)-1,3,4-thiadiazol-2-yl)imidazo[1,5-a]pyridin-8-yl)piperazine-1-carbonyl)cyclopropoxy)acetic acid] | 27.1 nM | 3630 nM | – | –
CC1(NS(=O)(=O)c2cc(N3CCNCC3)c3cnc(-c4nnc(C(F)F)s4)n3c2)CC1 [Example 341, 3-(5-(difluoromethyl)-1,3,4-thiadiazol-2-yl)-N-(1-methylcyclopropyl)-8-(piperazin-1-yl)imidazo[1,5-a]pyridine-6-sulfonamide] | 2.42 nM | 139 nM | – | –
CN(C)CCOC1(C(=O)N2CCN(c3cc(S(=O)(=O)NC4(C)CC4)cn4c(-c5nnc(C(F)(F)F)s5)ncc34)CC2)CC1 [Example 384, 8-(4-(1-(2-(dimethylamino)ethoxy)cyclopropane-1-carbonyl)piperazin-1-yl)-N-(1-methylcyclopropyl)-3-(5-(trifluoromethyl)-1,3,4-thiadiazol-2-yl)imidazo[1,5-a]pyridine-6-sulfonamide] | < 0.15 nM | 17.6 nM | – | –
